From ChEMBL document CHEMBL4184095, “Identification of novel small-molecule inhibitors of Zika virus infection” (Bioorg Med Chem Lett, 2018)

Experiments:
Zika virus [1] = assay: Antiviral activity against Zika virus infected in human A549 cells preincubated for 5 hrs followed by compound wash measured after 48 hrs by viral plague-forming assay; format: functional, organism-based
[2] = Cytotoxicity against human A549 cells assessed as cell viability at 0.1 uM by MTT assay relative to control; format: cell-based; conditions: read-out: Activity
[3] = Cytotoxicity against human A549 cells assessed as cell viability at 1 uM by MTT assay relative to control; format: cell-based; conditions: read-out: Activity
[4] = Cytotoxicity against human A549 cells assessed as cell viability at 100 uM by MTT assay relative to control; format: cell-based; conditions: read-out: Activity
[5] = Cytotoxicity against human A549 cells assessed as cell viability at 10 uM by MTT assay relative to control; format: cell-based; conditions: read-out: Activity
Zika virus [6] = assay: Antiviral activity against Zika virus infected in human A549 cells assessed as virus titer preincubated for 5 hrs followed by compound wash measured after 48 hrs by viral plague-forming assay; format: functional

Structure (SMILES)	IC50 (Zika virus [1])	viability at 0.1 µM [2]	viability at 1 µM [3]	viability at 100 µM [4]	viability at 10 µM [5]	Activity (Zika virus [6])
O[C@H]1CC[C@H](Nc2nc(-c3ccccc3)nc3[nH]ccc23)CC1	58.6 nM	106%	111%	41.7%	98.5%	
C=CCSc1nsc(NC(=O)Nc2ccc(F)cc2F)n1	4480 nM	100%	100%	31.3%	90.2%	
O=S(=O)(c1c(F)c(F)c(F)c(F)c1F)N1CCN(c2ccccc2)CC1	0.87 nM	93.1%	103%	35%	77%	7 log10PFU/ml
COc1ccc([C@H]2CNC(=O)C2)cc1OC1CCCC1 [S-ROLIPRAM]	25.8 nM	96.5%	105%	40.9%	97%	
COc1ccc(CCCn2ncc3c2nc(N)n2nc(-c4ccco4)nc32)cc1	3060 nM	94.7%	106%	41.6%	77.2%	
C#CCSc1nsc(NC(=O)Nc2ccccc2Cl)n1	1680 nM	98.1%	96.2%	21.4%	89.9%	
C=CCSc1nsc(NC(=O)Nc2ccc(Cl)cc2C(F)(F)F)n1	0.318 nM	102%	104%	43.1%	95.8%	
COc1ccc([C@@H]2CNC(=O)C2)cc1OC1CCCC1 [(-)-ROLIPRAM]	77.6 nM	95.7%	97.1%	39.1%	92.5%	
COc1ccc(C2CNC(=O)NC2)cc1O[C@@H]1C[C@H]2CC[C@H]1C2	182 nM	96.6%	104%	43.3%	94.3%	
C=CCSc1nsc(NC(=O)Nc2cccc(C(C)=O)c2)n1	160 nM	104%	105%	21.6%	96.7%	7 log10PFU/ml
CCCn1c(=O)[nH]c2nc(-c3ccc(S(=O)(=O)N4CCN(c5ccc(Cl)cc5)CC4)cc3)[nH]c2c1=O	43.8 nM	97.7%	97.4%	35.8%	86.5%	
CN1CCCC1=O [METHYLPYRROLIDONE]		98.6%	102%	39.3%	99.4%	
C#CCSc1nsc(NC(=O)Nc2ccc(Cl)c(C(F)(F)F)c2)n1	26.9 nM	99.8%	97.8%	18%	74.1%	
Nc1nc(NCCc2ccc(O)cc2)nc2nc(-c3ccco3)nn12 [ZM-241385]	1070 nM	107%	110%	32.6%	77.8%	
COc1ccc(C2CNC(=O)C2)cc1OC1CCCC1 (stereo not drawn) [ROLIPRAM]	44.6 nM	107%	114%	43.4%	101%	7 log10PFU/ml
C=CCSc1nsc(NC(=O)Nc2ccc(Cl)cc2)n1	0.189 nM	100%	98.1%	15.1%	51.2%	
CCCOc1cc([C@]2(C)CNC(=O)O2)ccc1OC [DAXALIPRAM]	769 nM	101%	106%	41.8%	95.3%	
O=C(Nc1nc(SCCOc2ccccc2)ns1)Nc1ccc(F)cc1F	4940 nM	96.2%	102%	27.3%	95.5%	
COCCOc1ccc(N2CCN(CCn3ncc4c3nc(N)n3nc(-c5ccco5)nc43)CC2)cc1 [PRELADENANT]	136 nM	109%	104%	27.9%	57%	7 log10PFU/ml
